Laboratory results reported in US20080051466A1, “Isoalpha acid based protein kinase modulation cancer treatment” (Metaproteomics, LLC, priority 2006, published 2008).

How the values were obtained:
Assay in all cases: KinaseProfiler Assay
Syk = Syk (Homo sapiens, UniProt P43405); assay type: biochemical; details: read-out: Syk, % of Control
MAPKAP-K2 = MAPKAP-K2 (Homo sapiens, UniProt P49137); assay type: biochemical; details: read-out: MAPKAP-K2, % of Control
GSK3α = GSK3α (Homo sapiens, UniProt P49840); assay type: biochemical; details: read-out: GSK3α, % of Control
Ros = Ros (Homo sapiens, UniProt P08922); assay type: biochemical; details: read-out: Ros, % of Control
Chain of Ros (P08922 28-2347): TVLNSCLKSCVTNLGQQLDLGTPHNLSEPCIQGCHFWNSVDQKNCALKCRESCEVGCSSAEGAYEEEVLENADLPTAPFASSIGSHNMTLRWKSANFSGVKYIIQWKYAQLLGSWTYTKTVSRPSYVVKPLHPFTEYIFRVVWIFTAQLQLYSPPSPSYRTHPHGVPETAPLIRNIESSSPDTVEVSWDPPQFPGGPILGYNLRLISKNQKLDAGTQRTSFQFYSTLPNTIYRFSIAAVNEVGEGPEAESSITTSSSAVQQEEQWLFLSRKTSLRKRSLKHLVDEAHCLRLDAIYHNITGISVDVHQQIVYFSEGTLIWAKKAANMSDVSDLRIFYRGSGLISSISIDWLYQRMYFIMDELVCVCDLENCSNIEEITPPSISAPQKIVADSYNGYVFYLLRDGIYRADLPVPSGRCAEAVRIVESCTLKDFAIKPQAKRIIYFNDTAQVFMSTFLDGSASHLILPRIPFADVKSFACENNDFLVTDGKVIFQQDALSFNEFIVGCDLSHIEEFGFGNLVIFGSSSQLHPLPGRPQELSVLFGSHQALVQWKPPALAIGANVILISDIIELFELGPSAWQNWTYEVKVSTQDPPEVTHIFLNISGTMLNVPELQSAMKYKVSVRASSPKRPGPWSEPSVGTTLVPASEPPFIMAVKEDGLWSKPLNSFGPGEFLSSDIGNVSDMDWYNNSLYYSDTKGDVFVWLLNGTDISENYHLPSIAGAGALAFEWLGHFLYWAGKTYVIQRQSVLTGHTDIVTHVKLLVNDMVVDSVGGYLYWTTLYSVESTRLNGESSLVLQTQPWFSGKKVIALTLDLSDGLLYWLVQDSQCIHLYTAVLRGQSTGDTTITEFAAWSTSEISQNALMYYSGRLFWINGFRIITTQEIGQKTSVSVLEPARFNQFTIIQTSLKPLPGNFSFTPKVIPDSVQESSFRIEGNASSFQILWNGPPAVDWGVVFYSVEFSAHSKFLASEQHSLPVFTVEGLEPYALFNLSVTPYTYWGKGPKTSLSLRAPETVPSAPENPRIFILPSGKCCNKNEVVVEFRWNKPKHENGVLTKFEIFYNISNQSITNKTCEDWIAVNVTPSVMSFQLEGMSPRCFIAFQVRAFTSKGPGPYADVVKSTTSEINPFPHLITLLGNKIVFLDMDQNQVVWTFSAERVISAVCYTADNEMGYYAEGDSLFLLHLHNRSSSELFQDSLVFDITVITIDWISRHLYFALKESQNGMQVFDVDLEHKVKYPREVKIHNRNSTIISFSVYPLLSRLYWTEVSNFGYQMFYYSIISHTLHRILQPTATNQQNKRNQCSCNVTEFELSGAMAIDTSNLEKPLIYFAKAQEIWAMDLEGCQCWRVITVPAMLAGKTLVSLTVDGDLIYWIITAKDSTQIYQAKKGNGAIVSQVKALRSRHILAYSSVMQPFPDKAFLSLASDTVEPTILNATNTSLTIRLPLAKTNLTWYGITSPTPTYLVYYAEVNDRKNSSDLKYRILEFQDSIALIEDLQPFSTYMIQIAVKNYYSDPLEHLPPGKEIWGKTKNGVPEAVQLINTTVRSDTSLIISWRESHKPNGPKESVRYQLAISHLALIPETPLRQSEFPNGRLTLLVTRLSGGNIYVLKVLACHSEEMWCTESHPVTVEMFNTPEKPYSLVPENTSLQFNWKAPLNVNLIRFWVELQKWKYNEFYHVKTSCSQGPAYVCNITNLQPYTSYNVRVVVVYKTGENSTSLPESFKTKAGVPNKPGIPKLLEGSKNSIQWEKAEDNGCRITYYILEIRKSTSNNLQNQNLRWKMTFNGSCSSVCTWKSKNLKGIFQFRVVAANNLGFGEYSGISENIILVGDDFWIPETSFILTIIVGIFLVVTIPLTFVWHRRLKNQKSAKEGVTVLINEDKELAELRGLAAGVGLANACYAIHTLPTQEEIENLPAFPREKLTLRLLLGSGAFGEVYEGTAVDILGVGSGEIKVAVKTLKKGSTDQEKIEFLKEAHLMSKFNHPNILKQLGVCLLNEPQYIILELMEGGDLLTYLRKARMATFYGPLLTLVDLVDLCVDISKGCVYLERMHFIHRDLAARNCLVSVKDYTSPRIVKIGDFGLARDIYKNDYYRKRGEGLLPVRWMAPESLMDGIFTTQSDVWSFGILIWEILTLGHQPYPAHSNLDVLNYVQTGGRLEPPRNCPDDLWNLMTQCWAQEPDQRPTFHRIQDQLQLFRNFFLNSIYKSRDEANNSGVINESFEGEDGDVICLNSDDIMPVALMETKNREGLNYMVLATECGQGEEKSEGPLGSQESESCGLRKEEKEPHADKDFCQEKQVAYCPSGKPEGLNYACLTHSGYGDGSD

PhKγ2 = molecular target: T1, PhKγ2 (Homo sapiens, UniProt P15735); assay type: biochemical; details: read-out: PhKγ2, % of Control
T1 sequence (P15735 1-406): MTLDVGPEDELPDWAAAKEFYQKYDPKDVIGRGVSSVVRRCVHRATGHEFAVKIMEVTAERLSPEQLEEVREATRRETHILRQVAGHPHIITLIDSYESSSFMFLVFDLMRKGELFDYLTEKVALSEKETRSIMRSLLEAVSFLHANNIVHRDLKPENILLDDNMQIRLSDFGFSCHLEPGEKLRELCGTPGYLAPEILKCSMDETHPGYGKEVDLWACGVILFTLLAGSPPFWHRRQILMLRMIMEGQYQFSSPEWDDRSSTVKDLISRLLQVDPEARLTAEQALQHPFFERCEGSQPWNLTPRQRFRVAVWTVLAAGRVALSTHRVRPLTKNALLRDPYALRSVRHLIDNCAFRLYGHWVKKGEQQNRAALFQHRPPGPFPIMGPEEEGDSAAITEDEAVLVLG

DAPK2 = DAPK2 (Homo sapiens, UniProt Q9UIK4); assay type: biochemical; details: read-out: DAPK2, % of Control
PKBγ = PKBγ (Homo sapiens, UniProt Q9Y243); assay type: biochemical; details: read-out: PKBγ, % of Control
PKA(b) = PKA(b) (Bos taurus, UniProt P00517); assay type: biochemical, human; details: read-out: PKA(b), % of Control
TSSK2 = molecular target: T2, TSSK2 (Homo sapiens, UniProt Q96PF2); assay type: biochemical; details: read-out: TSSK2, % of Control
T2 sequence (Q96PF2 1-358): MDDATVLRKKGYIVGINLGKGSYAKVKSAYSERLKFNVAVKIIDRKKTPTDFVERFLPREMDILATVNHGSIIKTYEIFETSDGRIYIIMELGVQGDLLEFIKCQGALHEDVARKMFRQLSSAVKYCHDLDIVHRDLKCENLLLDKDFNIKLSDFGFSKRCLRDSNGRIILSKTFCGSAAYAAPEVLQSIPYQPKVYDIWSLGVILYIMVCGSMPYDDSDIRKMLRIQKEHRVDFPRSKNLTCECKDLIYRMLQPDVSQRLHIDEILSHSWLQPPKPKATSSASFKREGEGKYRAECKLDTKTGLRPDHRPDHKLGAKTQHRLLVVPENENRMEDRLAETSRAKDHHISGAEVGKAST

Abl(T315I) = Abl(T315I) (Homo sapiens, UniProt P00519, T315I); assay type: biochemical; details: read-out: Abl(T315I), % of Control
Flt4 = Flt4 (Homo sapiens, UniProt P35916); assay type: biochemical; details: read-out: Flt4, % of Control
Chain of Flt4 (P35916 25-1363): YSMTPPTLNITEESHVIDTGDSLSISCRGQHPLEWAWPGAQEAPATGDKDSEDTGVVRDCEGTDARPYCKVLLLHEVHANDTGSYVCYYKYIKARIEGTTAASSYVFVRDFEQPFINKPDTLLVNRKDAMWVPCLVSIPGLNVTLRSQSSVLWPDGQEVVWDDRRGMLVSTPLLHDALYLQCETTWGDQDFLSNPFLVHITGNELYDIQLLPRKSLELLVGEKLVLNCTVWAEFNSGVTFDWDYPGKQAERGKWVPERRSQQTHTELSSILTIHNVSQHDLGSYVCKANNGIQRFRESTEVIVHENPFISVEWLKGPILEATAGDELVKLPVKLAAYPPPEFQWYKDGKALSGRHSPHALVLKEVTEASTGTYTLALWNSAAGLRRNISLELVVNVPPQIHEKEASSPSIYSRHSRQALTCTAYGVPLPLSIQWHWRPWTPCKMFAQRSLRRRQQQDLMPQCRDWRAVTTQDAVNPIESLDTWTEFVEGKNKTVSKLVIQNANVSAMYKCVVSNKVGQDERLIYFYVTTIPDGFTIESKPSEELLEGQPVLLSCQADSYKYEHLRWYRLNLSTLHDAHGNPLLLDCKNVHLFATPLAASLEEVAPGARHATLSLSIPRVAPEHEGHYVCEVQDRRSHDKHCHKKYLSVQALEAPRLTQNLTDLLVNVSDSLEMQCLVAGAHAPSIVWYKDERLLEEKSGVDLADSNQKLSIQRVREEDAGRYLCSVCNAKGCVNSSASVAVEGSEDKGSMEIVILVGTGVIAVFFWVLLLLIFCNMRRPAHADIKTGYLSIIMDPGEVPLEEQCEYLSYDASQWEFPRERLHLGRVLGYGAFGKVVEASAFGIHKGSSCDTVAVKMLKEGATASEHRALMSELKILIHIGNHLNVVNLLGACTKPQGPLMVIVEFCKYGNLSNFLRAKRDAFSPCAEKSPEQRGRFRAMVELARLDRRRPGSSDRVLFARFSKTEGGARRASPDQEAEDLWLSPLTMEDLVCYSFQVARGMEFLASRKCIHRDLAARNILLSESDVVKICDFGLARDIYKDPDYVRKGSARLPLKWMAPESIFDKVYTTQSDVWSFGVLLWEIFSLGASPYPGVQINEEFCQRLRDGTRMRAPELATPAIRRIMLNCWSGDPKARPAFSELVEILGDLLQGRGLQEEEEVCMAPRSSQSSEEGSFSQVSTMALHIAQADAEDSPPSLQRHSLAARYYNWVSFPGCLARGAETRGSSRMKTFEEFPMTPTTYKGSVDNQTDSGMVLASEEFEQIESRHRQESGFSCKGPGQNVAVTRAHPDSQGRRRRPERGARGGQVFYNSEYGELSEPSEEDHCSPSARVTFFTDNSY

CDK9/cyclin T1 = CDK9/cyclin T1 (Homo sapiens, UniProt P50750); assay type: biochemical; details: read-out: CDK9/cyclin T1, % of Control
Pim-1 = Pim-1 (Homo sapiens, UniProt P11309); assay type: biochemical; details: read-out: Pim-1, % of Control
Chain of Pim-1 (P11309 whole entry): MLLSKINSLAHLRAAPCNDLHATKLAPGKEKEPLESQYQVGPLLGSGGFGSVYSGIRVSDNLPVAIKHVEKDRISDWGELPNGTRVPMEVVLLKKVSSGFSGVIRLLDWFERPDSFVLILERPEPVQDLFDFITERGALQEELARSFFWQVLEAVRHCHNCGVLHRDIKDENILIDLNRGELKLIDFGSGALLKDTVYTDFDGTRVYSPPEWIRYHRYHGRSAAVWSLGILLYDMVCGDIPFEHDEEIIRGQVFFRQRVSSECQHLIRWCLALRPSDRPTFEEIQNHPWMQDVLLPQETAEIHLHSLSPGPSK

ErbB4 = ErbB4 (Homo sapiens, UniProt Q15303); assay type: biochemical; details: read-out: ErbB4, % of Control
FGFR2 = FGFR2 (Homo sapiens, UniProt P21802); assay type: biochemical; details: read-out: FGFR2, % of Control
Chain of FGFR2 (P21802 22-821): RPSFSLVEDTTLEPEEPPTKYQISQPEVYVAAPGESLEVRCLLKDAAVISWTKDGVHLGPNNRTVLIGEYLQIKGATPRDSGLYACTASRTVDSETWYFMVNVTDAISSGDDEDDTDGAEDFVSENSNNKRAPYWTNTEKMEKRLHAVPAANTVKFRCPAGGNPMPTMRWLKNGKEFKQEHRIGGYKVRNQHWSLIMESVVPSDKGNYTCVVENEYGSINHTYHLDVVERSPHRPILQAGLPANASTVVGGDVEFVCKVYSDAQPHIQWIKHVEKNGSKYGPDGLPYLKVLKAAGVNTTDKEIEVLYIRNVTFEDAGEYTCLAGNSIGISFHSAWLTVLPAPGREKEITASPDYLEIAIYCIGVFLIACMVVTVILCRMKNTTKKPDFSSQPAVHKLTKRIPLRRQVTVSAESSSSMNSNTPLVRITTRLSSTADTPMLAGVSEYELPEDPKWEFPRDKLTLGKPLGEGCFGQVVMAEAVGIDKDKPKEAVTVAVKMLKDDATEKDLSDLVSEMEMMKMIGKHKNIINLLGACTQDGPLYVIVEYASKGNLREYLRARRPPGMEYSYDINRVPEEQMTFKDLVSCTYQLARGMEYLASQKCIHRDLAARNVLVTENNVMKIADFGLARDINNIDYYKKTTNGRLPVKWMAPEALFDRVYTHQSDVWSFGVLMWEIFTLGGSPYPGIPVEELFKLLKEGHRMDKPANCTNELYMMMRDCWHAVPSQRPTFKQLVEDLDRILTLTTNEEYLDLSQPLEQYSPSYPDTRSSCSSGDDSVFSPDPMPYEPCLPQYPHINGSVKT

Bmx = Bmx (Homo sapiens, UniProt P51813); assay type: biochemical; details: 25 ug/ml; read-out: Bmx, % of Control
ZIPK = ZIPK (Homo sapiens, UniProt O43293); assay type: biochemical; details: read-out: ZIPK, % of Control

remaining activity at 1 µg/mL (Syk; 1 ug/ml): 95%
remaining activity at 5 µg/mL (Syk; 5 ug/ml): 60%
remaining activity at 25 µg/mL (Syk; 25 ug/ml): 32%
remaining activity at 50 µg/mL (Syk; 50 ug/ml): 17%
remaining activity at 1 µg/mL (MAPKAP-K2; 1 ug/ml): 99%
remaining activity at 5 µg/mL (MAPKAP-K2; 5 ug/ml): 95%
remaining activity at 25 µg/mL (MAPKAP-K2; 25 ug/ml): 6%
remaining activity at 50 µg/mL (MAPKAP-K2; 50 ug/ml): 8%
remaining activity at 1 µg/mL (GSK3α; 1 ug/ml): 102%
remaining activity at 25 µg/mL (GSK3α; 25 ug/ml): 11%
remaining activity at 50 µg/mL (GSK3α; 50 ug/ml): -4%
remaining activity at 1 µg/mL (Ros; 1 ug/ml): 101%
remaining activity at 5 µg/mL (Ros; 5 ug/ml): 99%
remaining activity at 25 µg/mL (Ros; 25 ug/ml): 85%
remaining activity at 50 µg/mL (Ros; 50 ug/ml): 94%
remaining activity at 1 µg/mL (PhKγ2; 1 ug/ml): 106%
remaining activity at 5 µg/mL (PhKγ2; 5 ug/ml): 60%
remaining activity at 25 µg/mL (PhKγ2; 25 ug/ml): 11%
remaining activity at 50 µg/mL (PhKγ2; 50 ug/ml): 5%
remaining activity at 1 µg/mL (DAPK2; 1 ug/ml): 105%
remaining activity at 5 µg/mL (DAPK2; 5 ug/ml): 88%
remaining activity at 25 µg/mL (DAPK2; 25 ug/ml): 45%
remaining activity at 50 µg/mL (DAPK2; 50 ug/ml): 26%
remaining activity at 1 µg/mL (PKBγ; 1 ug/ml): 104%
remaining activity at 5 µg/mL (PKBγ; 5 ug/ml): 104%
remaining activity at 25 µg/mL (PKBγ; 25 ug/ml): 12%
remaining activity at 1 µg/mL (PKA(b); 1 ug/ml): 137%
remaining activity at 25 µg/mL (PKA(b); 25 ug/ml): 33%
remaining activity at 1 µg/mL (TSSK2; 1 ug/ml): 102%
remaining activity at 5 µg/mL (TSSK2; 5 ug/ml): 95%
remaining activity at 25 µg/mL (TSSK2; 25 ug/ml): 61%
remaining activity at 50 µg/mL (TSSK2; 50 ug/ml): 48%
remaining activity at 1 µg/mL (Abl(T315I); 1 ug/ml): 126%
remaining activity at 5 µg/mL (Abl(T315I); 5 ug/ml): 115%
remaining activity at 25 µg/mL (Abl(T315I); 25 ug/ml): 16%
remaining activity at 1 µg/mL (Flt4; 1 ug/ml): 74%
remaining activity at 5 µg/mL (Flt4; 5 ug/ml): 10%
remaining activity at 25 µg/mL (Flt4; 25 ug/ml): 11%
remaining activity at 1 µg/mL (CDK9/cyclin T1; 1 ug/ml): 110%
remaining activity at 5 µg/mL (CDK9/cyclin T1; 5 ug/ml): 107%
remaining activity at 25 µg/mL (CDK9/cyclin T1; 25 ug/ml): 45%
remaining activity at 50 µg/mL (CDK9/cyclin T1; 50 ug/ml): 31%
remaining activity at 1 µg/mL (Pim-1; 1 ug/ml): 88%
remaining activity at 5 µg/mL (Pim-1; 5 ug/ml): 35%
remaining activity at 50 µg/mL (Pim-1; 50 ug/ml): 3%
remaining activity at 1 µg/mL (ErbB4; 1 ug/ml): 132%
remaining activity at 5 µg/mL (ErbB4; 5 ug/ml): 85%
remaining activity at 25 µg/mL (ErbB4; 25 ug/ml): 52%
remaining activity at 50 µg/mL (ErbB4; 50 ug/ml): 27%
remaining activity at 1 µg/mL (FGFR2; 1 ug/ml): 116%
remaining activity at 5 µg/mL (FGFR2; 5 ug/ml): 89%
remaining activity at 25 µg/mL (FGFR2; 25 ug/ml): 36%
remaining activity at 25 µg/mL (Bmx): 22%
remaining activity at 1 µg/mL (ZIPK; 1 ug/ml): 115%
remaining activity at 5 µg/mL (ZIPK; 5 ug/ml): 74%
remaining activity at 25 µg/mL (ZIPK; 25 ug/ml): 20%
remaining activity at 50 µg/mL (ZIPK; 50 ug/ml): 70%
Structure (SMILES): COc1cc(O)c(CC=C(C)C)c(O)c1C(=O)/C=C/c1ccc(O)cc1 [Xanthohumol, xanthohumol]
